Experimental data published in patent publication US20240216317A1, “COMPOSITION FOR PREVENTING, AMELIORATING OR TREATING INFLAMMATORY BOWEL DISEASE COMPRISING COMPOUND ISOLATED FROM ISODON EXCISUS AS EFFECTIVE COMPONENT” (HEALINNOLS INC., priority 2022, published 2024).

Columns and labels:
RIPK2 = molecular target: T1, RIPK2 (Homo sapiens, UniProt O43353); test: Inhibitory activity on RIPK2 phosphorylation using Western blot in Caco-2 cells; format: cell-based; details: FIG. 1
T1 construct: Caco-2 cells were dissolved by adding buffer solution for degradation; endogenous in cells; host or cells: Caco-2
T1 sequence (O43353 whole entry): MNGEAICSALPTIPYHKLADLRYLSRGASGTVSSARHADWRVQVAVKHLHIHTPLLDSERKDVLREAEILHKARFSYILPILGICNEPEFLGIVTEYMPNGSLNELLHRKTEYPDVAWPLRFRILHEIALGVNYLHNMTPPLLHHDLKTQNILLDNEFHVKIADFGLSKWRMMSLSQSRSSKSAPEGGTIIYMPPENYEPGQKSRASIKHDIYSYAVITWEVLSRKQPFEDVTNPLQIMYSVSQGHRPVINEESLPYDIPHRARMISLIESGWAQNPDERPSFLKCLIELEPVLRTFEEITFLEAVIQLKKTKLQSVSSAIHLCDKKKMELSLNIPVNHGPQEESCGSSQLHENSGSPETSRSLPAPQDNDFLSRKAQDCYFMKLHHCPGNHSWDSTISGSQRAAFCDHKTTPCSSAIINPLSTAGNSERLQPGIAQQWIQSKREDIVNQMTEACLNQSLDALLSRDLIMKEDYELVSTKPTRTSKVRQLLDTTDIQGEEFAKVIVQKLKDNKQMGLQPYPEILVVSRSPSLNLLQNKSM
Protocol: (§1) Caco-2 cells were adjusted to have density of 2×10^5 cells/ml. Suspension of the cells (0.5 ml) was aliquoted in apical side membrane phase of a transwell insert 12-well plate. To the basolateral side phase, 1.5 ml of culture medium were added. While replacing the medium with fresh one, once per 2 or 3 days, culture was continued for 21 days approximately, i.e., till to have cell division and suitable TEER (transepithelial electrical resistance) value of monolayer.
For measuring the electric resistance (TEER value, Ω·cm^2) between the apical side and basolateral side, EVOM resistance meter (EVOM2, WPI) was employed.
Once the TEER value of Caco-2 cells is 200 Ω·cm^2 or higher, MDP inside the insert was treated for 24 hours with the compound represented by Chemical formula 1 of the present invention. After washing Caco-2 cells inside the insert with 1×PBS, they were treated with trypsin. After centrifuge and washing with cold 1×PBS, Caco-2 cells were dissolved by adding buffer solution for degradation (50 mM Tris-HCl (pH 8.0), 5 mM EDTA, 15 mM NaCl, 1% NP-40, 1 mM PMSF) followed by centrifuge for 20 minutes at 12,000 rpm, 4° C. Only the supernatant was then collected and protein quantification was carried out by using BCA protein assay kit. […]

occludin = test: Immunofluorescence microscopy of tight junction-related protein occludin in intestinal epithelial wall model (DSS-treated Caco-2); format: cell-based, human; details: 3% DSS, 24 hours; Chemical formula 1 0.3, 1 or 3 μM; 5-ASA 500 μM; FIG. 3
Protocol: Caco-2 cell line (human intestinal epithelial cell line) and RAW 264.7 cell line, which is macrophage cells derived from mouse, were cultured at 37° C., 5% CO2 conditions by using DMEM (Dulbecco's Modified Eagle Medium, #11995065, Gibco) containing 10% FBS (fetal bovine serum, #16000044, Gibco) and 1% streptomycin/penicillin (#15140122, Gibco). For culturing the cells, the medium exchange was carried out every 2 to 3 days, and, once the cells are grown to the level of 80% in cell culture dish (#353003, Falcon), they were maintained by subculture.
as §1, with “The Caco-2” for “Caco-2”, “monolayer. […]” for “monolayer.”
Thereafter, the cells were washed 3 times with 1×PBS for 5 minutes and treated for 5 minutes with Hoechst 33342 for staining the nucleus. […] After the mounting with ProLong™ Gold Antifade reagent, it was examined by confocal fluorescence microscopy.

inhibitory activity on RIPK2 phosphorylation relative to gefitinib (positive control) (RIPK2)	inhibition of activation of RIPK2 (phosphorylation) (RIPK2; MDP, 24 hours treatment)	Compound	expression amount of occludin compared to DSS model group (occludin)
at least 2 times	can inhibit the activation of RIPK2	COC(=O)C[C@H](OC(=O)/C=C/c1ccc(O)c(O)c1)c1ccc(O)c(O)c1 [Compound 1, 3-[3,4-dihydroxyphenyl]acrylic acid 1-[3,4-dihydroxyphenyl]-2-methoxycarbonylethyl ester]	statistically significantly higher
		Nc1ccc(O)c(C(=O)O)c1 [Compound 5-ASA, 5-aminosalicylic acid, reference compound]	statistically significantly higher
